Experimental data taken from paper PMC9226319, “Peripherally restricted transthyretin-based delivery system for probes and therapeutics avoiding opioid-related side effects” (Nature Communications, 2022).
“And” between values parts separate entries of the source, which are not always exact repeats. Identical values can stand only once. Like-named read-outs stand apart in the source and are kept apart here.

Legend:
[1] = rat; for plasma concentration: IV 4.84 µmol/kg, individual animals
in vitro = conditions: human, % Cell viability, replicates
TTR in human serum = TTR in human serum (Homo sapiens, UniProt P02766); test: TTR serum fluorescent probe exclusion (FPE) selectivity assay; type: binding; conditions: ligand 10 µM; for %FPE probe fluorescence: human serum, replicates
in vivo [2] = conditions: male, Sprague Dawley, rat, iv
in vivo [3] = conditions: male, Sprague Dawley, rat, sc
[4] = molecular target: T1, kappa opioid receptor (rat) (Rattus norvegicus, UniProt P34975); conditions: read-out: binding affinity to kappa-opioid receptor (Ki); cited from earlier work
T1 construct: Eurofins Cerep (France)

[5] = rat; for plasma concentration: SC 16 µmol/kg, individual animals
male Sprague-Dawley rats [6] = conditions: rat, in vivo, sc
in vivo [7] = conditions: male, Sprague Dawley, rat, iv; remark: listed apart in the source
male Sprague-Dawley rats [8] = test: Gastrointestinal (GI) transit (charcoal meal) assays; type: in vivo, rat

T1 sequence (P34975 whole entry): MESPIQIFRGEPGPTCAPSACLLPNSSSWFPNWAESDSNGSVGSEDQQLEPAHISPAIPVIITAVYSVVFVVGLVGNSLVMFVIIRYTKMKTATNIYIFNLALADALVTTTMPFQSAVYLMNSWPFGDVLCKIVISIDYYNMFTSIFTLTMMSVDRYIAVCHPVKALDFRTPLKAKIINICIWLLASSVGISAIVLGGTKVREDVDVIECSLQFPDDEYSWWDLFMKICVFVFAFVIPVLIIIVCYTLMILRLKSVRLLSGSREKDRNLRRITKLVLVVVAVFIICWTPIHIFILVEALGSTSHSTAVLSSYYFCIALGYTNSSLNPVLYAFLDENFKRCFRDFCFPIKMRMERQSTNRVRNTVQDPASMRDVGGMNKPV

## C=CCN1CC[C@]23c4c5ccc(O)c4O[C@H]2[C@@H](OCCOCCOCCOCCOCCOCCOCCOC)CC[C@@]3(O)[C@H]1C5 [Naloxegol, reference compound]
[1]; 0.03 h
  plasma concentration: 2193.9 nM and 2301.3 nM
[1]; 0.5 h
  plasma concentration: 144.7 nM and 149.7 nM
[1]; 1 h
  plasma concentration: 58 nM and 27.2 nM and 41.1 nM
[1]; 2 h
  plasma concentration: 16.1 nM and 15.5 nM
[1]; 4 h
  plasma concentration: 4.6 nM and 6.8 nM
[1]; 6 h
  plasma concentration: 1.8 nM and 4 nM and 5.8 nM
[1]; 8 h
  plasma concentration: 2.3 nM and 1.4 nM
[1]; single IV bolus 4.84 µmol/kg
  k: 0.41 ± 0.06 h⁻¹
In vitro; 10 μM
  viability at 72 h, 10 µM: 103%
In vitro; 100 μM
  viability at 72 h, 100 µM: 99%
TTR in human serum; FPE probe 3.6 µM, 3 h reading relative to probe alone, text mean ± s.d., table replicates
  % TTR occupancy in human serum: 14.09% and 13.76% and 18.08% and 17.39%
TTR in human serum; time 0.000 h
  %FPE probe fluorescence: 0.000%
TTR in human serum; time 0.083 h
  %FPE probe fluorescence: -1.162% and 0.076% and 1.061% and 2.494%
TTR in human serum; time 0.250 h
  %FPE probe fluorescence: 12.642% and 13.881% and 14.653% and 16.580%
TTR in human serum; time 0.500 h
  %FPE probe fluorescence: 29.770% and 29.601% and 35.277% and 32.978%
TTR in human serum; time 1.000 h
  %FPE probe fluorescence: 51.856% and 49.775% and 51.097% and 53.857%
TTR in human serum; time 1.250 h
  %FPE probe fluorescence: 58.967% and 56.462% and 55.901% and 61.434%
TTR in human serum; time 1.500 h
  %FPE probe fluorescence: 63.979% and 62.154% and 61.352% and 66.100%
TTR in human serum; time 1.750 h
  %FPE probe fluorescence: 70.669% and 69.322% and 65.355% and 73.049%
TTR in human serum; time 2.000 h
  %FPE probe fluorescence: 72.778% and 74.065% and 70.075% and 75.601%
TTR in human serum; time 2.250 h
  %FPE probe fluorescence: 79.286% and 77.129% and 72.043% and 79.051%
TTR in human serum; time 2.500 h
  %FPE probe fluorescence: 80.847% and 80.185% and 76.560% and 80.986%
TTR in human serum; time 2.750 h
  %FPE probe fluorescence: 84.987% and 82.916% and 77.033% and 84.908%
TTR in human serum; time 3.000 h
  %FPE probe fluorescence: 85.911% and 86.240% and 81.919% and 82.607%
TTR in human serum; time 3.500 h
  %FPE probe fluorescence: 89.826% and 88.173% and 84.101% and 88.948%
TTR in human serum; time 3.750 h
  %FPE probe fluorescence: 85.342% and 89.201% and 87.815% and 89.262%
TTR in human serum; time 4.000 h
  %FPE probe fluorescence: 92.972% and 91.077% and 85.636% and 94.755%
TTR in human serum; time 4.250 h
  %FPE probe fluorescence: 92.674% and 90.338% and 87.389% and 92.827%
TTR in human serum; time 4.500 h
  %FPE probe fluorescence: 93.747% and 95.743% and 86.912% and 94.592%
TTR in human serum; time 4.750 h
  %FPE probe fluorescence: 93.049% and 92.357% and 88.468% and 95.740%
TTR in human serum; time 5.000 h
  %FPE probe fluorescence: 94.380% and 93.149% and 88.822% and 94.667%
TTR in human serum; time 5.250 h
  %FPE probe fluorescence: 94.178% and 93.087% and 90.315% and 94.928%
TTR in human serum; time 5.500 h
  %FPE probe fluorescence: 92.258% and 94.965% and 88.366% and 97.216%
TTR in human serum; time 5.750 h
  %FPE probe fluorescence: 93.772% and 93.937% and 90.079% and 96.029%
TTR in human serum; time 6.000 h
  %FPE probe fluorescence: 96.902% and 93.100% and 91.727% and 96.188%
In vivo [2]; percentage CSF to plasma ratio
  Kp: 0.15
In vivo [2]; percentage brain to plasma ratio
  Kp: 0.29
In vivo [3]; 16 umol/kg
  AUC(0-inf): 3.68 ± 0.566 µM·h
  CL/F: 72.8 mL/min/kg
  Vd/F: 5.58 ± 0.96 L/kg
  half-life: 52.8 ± 1.2 min
In vivo [3]; 16 µmol/kg, plasma concentration, SC 16 µmol/kg, 0.25 h, individual animals
  concentration at 0.25 h: 1930 nM
In vivo [3]; 16 µmol/kg, plasma concentration, SC 16 µmol/kg, 0.5 h, individual animals
  concentration at 0.5 h: 2470 nM
In vivo [3]; 16 µmol/kg, plasma concentration, SC 16 µmol/kg, 0.75 h, individual animals
  concentration at 0.75 h: 2870 nM
In vivo [3]; 16 µmol/kg, plasma concentration, SC 16 µmol/kg, 1 h, individual animals
  concentration at 1 h: 1970 nM
In vivo [3]; 16 µmol/kg, plasma concentration, SC 16 µmol/kg, 2 h, individual animals
  concentration at 2 h: 548 nM
[4]
  Ki: 8.7 nM
[5]; 0.03 h
  plasma concentration: 247 nM and 451 nM and 135 nM
[5]; 0.25 h
  plasma concentration: 1100 nM and 1090 nM
[5]; 0.5 h
  plasma concentration: 1750 nM and 2300 nM
[5]; 0.75 h
  plasma concentration: 1870 nM and 2090 nM
[5]; 1 h
  plasma concentration: 1410 nM and 2160 nM
[5]; 2 h
  plasma concentration: 517 nM and 744 nM
[5]; 4 h
  plasma concentration: 95.6 nM and 149 nM and 239 nM
[5]; 6 h
  plasma concentration: 19 nM and 31.8 nM and 56.3 nM
[5]; 8 h
  plasma concentration: 3.9 nM and 6.7 nM and 10.6 nM
[5]; single SC dose 16 µmol/kg
  k: 0.79 ± 0.02 h⁻¹
Male Sprague-Dawley rats [6]
  hot plate latency: 17.6 ± 4.0 s
In vivo [7]; 4.84 umol/kg
  AUC(0-inf): 0.741 ± 0.0336 µM·h
  Vd: 2.76 ± 0.39 L/kg
  clearance: 109 mL/min/kg
  half-life: 103 ± 16.2 min
In vivo [7]; 4.84 µmol/kg, plasma concentration, IV 4.84 µmol/kg, 0.03 h, individual animals
  concentration at 0.03 h: 1900 nM
In vivo [7]; 4.84 µmol/kg, plasma concentration, IV 4.84 µmol/kg, 0.5 h, individual animals
  concentration at 0.5 h: 206 nM
In vivo [7]; 4.84 µmol/kg, plasma concentration, IV 4.84 µmol/kg, 2 h, individual animals
  concentration at 2 h: 17.8 nM
In vivo [7]; 4.84 µmol/kg, plasma concentration, IV 4.84 µmol/kg, 4 h, individual animals
  concentration at 4 h: 9.2 nM
In vivo [7]; 4.84 µmol/kg, plasma concentration, IV 4.84 µmol/kg, 8 h, individual animals
  concentration at 8 h: 2.5 nM
Male Sprague-Dawley rats [8]; 3.5 μmol/kg, 2.5h, individual animals (Fig.9b)
  GI transit 2.5h as % of saline group: 41.7% and 40.4% and 35.2% and 39.7% and 39.3% and 42.0%
Male Sprague-Dawley rats [8]; rat, in vivo, sc
  GI transit as % of saline group: 39.7 ± 2.5%
